Results on 8 compounds are retold here after ChEMBL document CHEMBL5625178, “The topoisomerase II β -kinase associated with HIV-1 is a potential target for pyridine-bischalcones' anti-HIV-1 activity” (Eur J Med Chem, 2023).

The test system of data set [1] is Human immunodeficiency virus 1. The data set is described as follows: Antiviral activity against HIV1 93IN101 infected in human SUP-T1 cells assessed as suppression of proviral DNA synthesis at IC50 concentration incubated for 5 hrs by PCR analysis. The format is functional, organism-based.
The subject of data set [2] is Human immunodeficiency virus 1. The data set is described as follows: Antiviral activity against HIV1 infected in human SUP-T1 cells assessed as inhibition of viral replication incubated for 5 hrs by sandwich ELISA method. The data set is classed as functional, organism-based. A general note: In an ELISA, binding on a coated surface is turned into a signal by an enzyme label.

A short description of data set [3]: (§1) Inhibition of HIV-1 topoisomerase II beta kinase phosphorylation in the presence of […][gamma 32P]-ATP incubated for 30 mins by liquid scintillation counter analysis. Details: species or system Human immunodeficiency virus 1.
Data set [4] can be described thus: Cytotoxicity against human SUP-T1 cells assessed as reduction in cell viability incubated for 16 hrs by MTT assay. The data set is classed as toxicity, cell-based.
For another data set, the system named is SUP-T1. The data set is described as follows: Inhibition of Topoisomerase II beta serine phosphorylation in human SUP-T1 cells infected with HIV1 93IN101 by Western blot analysis. The format is cell-based. Particulars: dose 5-50 nM. On the technique in general: Immunoblotting shows a protein as a band on a membrane.
Data set [5] deals with Human immunodeficiency virus 1. The description is as §1. The settings on record: dose 0.25-600 pM.

SMILES strings stand for the structures. Calls of active or inactive are those of the source. The rule behind the calls is not given here.

The term IC50 denotes the concentration that gives 50% inhibition. In general, CC50 refers to the concentration that lowers cell viability or growth by half. Take `C[n+]1ccccc1/C=C1\CCC/C(=C\c2cccc[n+]2C)C1=O`: the outcome in data set [1] was Active. For the same compound, in data set [2], the Activity entry is “Dose-Dependent Effect”. In addition, in data set [3], the IC50 amounted to 0.14 nM. For the same compound, the 50% cytotoxic concentration (CC50) at 16 h in data set [4] was found to be 2040 nM. The inhibition result in the data set on SUP-T1 was “Dose-Dependent Effect”.

With `O=C1/C(=C/c2ccccn2)CCC/C1=C\c1ccccn1`, the Activity result in data set [2] is “Dose-Dependent Effect”. Moreover, the IC50 in data set [3] is 0.55 nM. Besides, the CC50 at 16 h in data set [4] is 920 nM.

As to `O=C1/C(=C/c2ccncc2)CCC/C1=C\c1ccncc1`, the Activity entry in data set [2] was “Dose-Dependent Effect”. Moreover, the inhibition entry in data set [5] is “Dose-Dependent Effect”. In addition, in data set [3], the IC50 was 0.44 nM. Also, in data set [4], the 50% cytotoxic concentration (CC50) at 16 h came out at 820 nM.

For the compound `Cc1cn([C@H]2C[C@H](N=[N+]=[N-])[C@@H](CO)O2)c(=O)[nH]c1=O`, in data set [2], the Activity result was “Dose-Dependent Effect”.

Take `O=C1/C(=C/c2cccnc2)CCC/C1=C\c1cccnc1`: the Activity result in data set [2] is “Dose-Dependent Effect”. Moreover, in data set [3], the IC50 is 0.32 nM. Also, the half-maximal cytotoxic concentration (CC50) at 16 h in data set [4] was found to be 960 nM.

As to `c1ccc(-c2cccnc2)cc1`, in data set [5], the inhibition entry was “Dose-Dependent Effect”. Also, the CC50 at 16 h in data set [4] was 1500 nM.

For the compound `C[n+]1ccc(/C=C2\CCC/C(=C\c3cc[n+](C)cc3)C2=O)cc1`, the result in data set [1] was Active. The Activity entry in data set [2] was “Dose-Dependent Effect”. The concentration for half-maximal inhibition (IC50) in data set [3] turned out to be 0.15 nM. In addition, the 50% cytotoxic concentration (CC50) at 16 h in data set [4] is 2020 nM. Moreover, the inhibition entry in the data set on SUP-T1 is “Dose-Dependent Effect”.

On to `C[n+]1cccc(/C=C2\CCC/C(=C\c3ccc[n+](C)c3)C2=O)c1`, for which, in data set [1], the result was Active. In data set [2], the Activity entry is “Dose-Dependent Effect”. The 50% inhibitory concentration (IC50) in data set [3] worked out at 0.1 nM. For the same compound, the CC50 at 16 h in data set [4] is 2120 nM. Besides, the inhibition entry in the data set with SUP-T1 is “Dose-Dependent Effect”.
